Assay results taken from patent US8871767B2, “2-arylimidazo[1,2-B]pyridazine, 2-phenylimidazo[1,2-A]pyridine, and 2-phenylimidazo[1,2-A]pyrazine derivatives” (Hengrui (USA) Ltd., priority 2010, dated 2014).
Read-outs that look alike come from different tables or passages of the source.

How the values were obtained:
[1] = test system: Hedgehog pathway activation on 10T1/2/Smo#3 cells (C3H10T1/2 cells transfected with human Smoothened receptor); assay: Hedgehog pathway activation on 10T1/2/Smo#3 cells measured by ALP activity; format: cell-based; conditions: Mus musculus, C3H 10T1/2, 10T1/2/Smo#3 cells
In short: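 C3H10T1/2 cells stably expressing human Smoothened were activated with hShh-conditioned medium (10-20%) or 500 nM SAG, with test compounds present. Pathway block read as inhibited ALP activity (4-methylumbelliferyl phosphate fluorescence); viability checked by CellTiter-Blue. IC50 values reported.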

[2] = test system: Hedgehog pathway activation (GLi-luciferase reporter) in Shh Light II reporter cells; assay: Hedgehog pathway activation on Shh Light II reporter cells measured by luciferase activity; format: cell-based; conditions: Mus musculus, Shh Light II
In short: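 Shh Light II reporter cells carrying a hedgehog-responsive GLi-luciferase reporter were stimulated either with 500 nM SAG, a direct Smoothened agonist, or with conditioned media containing human Sonic Hedgehog (hShh). Test compounds were evaluated for blocking this pathway activation, quantified by luciferase activity. Cell viability was monitored in parallel with the Celltiter-Blue® assay.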

[3] = measured by ALP activity, read-out: ALP (IC50, inhibition of Hedgehog pathway activation)
[4] = hShh activation, read-out: Shh (IC50, inhibition of Hedgehog pathway activation)
[5] = hShh activation, ALP activity, read-out: 10T1/2/Smo#3 ALP activity (hShh Activation)
[6] = SAG activation (500 nM SAG), read-out: Shh Light II luciferase activity (SAG activation)
[7] = hShh activation, read-out: Shh Light II luciferase activity (hShh activation)

Compound: Fc1ccc(CN2CCN(c3ccc4nc(-c5ccc(F)cc5)c(Br)n4n3)CC2)cc1 [Example 146, 3-bromo-6-(4-(4-fluorobenzyl)piperazin-1-yl)-2-(4-fluorophenyl)imidazo[1,2-b]pyridazine]
- IC50 [1, 3]: 6980 nM
- IC50 [2, 4]: > 10000 nM

Compound: CCOC(=O)COc1cccc(-c2ccc3nc(-c4ccc(C)c(NC(=O)C(C)(C)C)c4)cn3n2)c1C(F)(F)F [Example 410, ethyl 2-(3-(2-(4-methyl-3-pivalamidophenyl)imidazo[1,2-b]pyridazin-6-yl)-2-(trifluoromethyl)phenoxy)acetate]
- IC50 [1, 5]: 300 to 3000 nM
- IC50 [1, 3]: 403 nM
- IC50 [2, 6]: 300 to 3000 nM
- IC50 [2, 4]: 121 nM
- IC50 [2, 7]: < 300 nM

Compound: Cc1c(Cl)nn2cc(-c3ccc(C(F)(F)F)c(NC(=O)C(C)(C)C)c3)nc2c1C [Example 198, N-(5-(6-chloro-7,8-dimethylimidazo[1,2-b]pyridazin-2-yl)-2-(trifluoromethyl)phenyl)pivalamide]
- IC50 [1, 5]: 300 to 3000 nM
- IC50 [1, 3]: 1970 nM
- IC50 [2, 6]: 3000 to 30000 nM
- IC50 [2, 4]: 1680 nM
- IC50 [2, 7]: 300 to 3000 nM

Compound: CC1CCCCN1c1ccc2nc(-c3ccc(C(F)(F)F)c(NC(=O)C(C)(C)C)c3)cn2n1 (stereo not shown) [Example 294, N-(5-(6-(2-methylpiperidin-1-yl)imidazo[1,2-b]pyridazin-2-yl)-2-(trifluoromethyl)phenyl)pivalamide]
- IC50 [1, 3]: 254 nM
- IC50 [2, 4]: 256 nM

Compound: CC1CN(C(=N)N)CCN1c1ccc2nc(-c3ccc(C(F)(F)F)c(NC(=O)C(C)(C)C)c3)cn2n1 (stereo not shown) [compound 571]
- IC50 [1, 3]: 554 nM
- IC50 [2, 4]: 129 nM

Compound: COc1ccccc1-c1ccc2nc(-c3ccc(C(F)(F)F)c(NC(=O)C(C)(C)C)c3)cn2n1 [Example 172, N-(5-(6-(2-methoxyphenyl)imidazo[1,2-b]pyridazin-2-yl)-2-(trifluoromethyl)phenyl)pivalamide]
- IC50 [1, 3]: 403 nM
- IC50 [2, 4]: 936 nM

Compound: Cc1c(-c2ccccn2)nn2cc(-c3ccc(C(F)(F)F)c(NC(=O)C(C)(C)C)c3)nc2c1C [Example 202, N-(5-(7,8-dimethyl-6-(pyridin-2-yl)-imidazo[1,2-b]pyridazin-2-yl)-2-(trifluoromethyl)phenyl)pivalamide]
- IC50 [1, 3]: 1320 nM
- IC50 [2, 4]: 221 nM

Compound: CC(C)OCCOc1ccc2nc(-c3ccc(C(F)(F)F)c(NC(=O)C(C)(C)C)c3)cn2n1 [Example 374, N-(5-(6-(2-isopropoxyethoxy)imidazo[1,2-b]pyridazin-2-yl)-2-(trifluoromethyl)phenyl)pivalamide]
- IC50 [1, 3]: 1280 nM
- IC50 [2, 4]: 634 nM

Compound: Cc1ccc(-c2cn3nc(-c4cccnc4C(F)(F)F)ccc3n2)cc1NC(=O)C(C)(C)C [Example 284, N-(2-methyl-5-(6-(2-(trifluoromethyl)pyridin-3-yl)imidazo[1,2-b]pyridazin-2-yl)phenyl)pivalamide]
- IC50 [1, 5]: < 300 nM
- IC50 [1, 3]: 29 nM
- IC50 [2, 6]: < 300 nM
- IC50 [2, 4]: 57 nM
- IC50 [2, 7]: < 300 nM

Compound: CCc1ccc(-c2cn3nc(-c4cccnc4C(F)(F)F)ccc3n2)cc1NC(=O)CC(C)(C)C [Example 691, N-(2-ethyl-5-(6-(2-(trifluoromethyl)pyridin-3-yl)imidazo[1,2-b]pyridazin-2-yl)phenyl)-3,3-dimethylbutanamide]
- IC50 [1, 3]: 1220 nM
- IC50 [2, 4]: 459 nM

Compound: Cc1ccc(-c2cn3nc(-c4cccc(C=CC(=O)O)c4)ccc3n2)cc1NC(=O)C(C)(C)C [compound 554]
- IC50 [1, 5]: 300 to 3000 nM
- IC50 [1, 3]: 1190 nM
- IC50 [2, 6]: 3000 to 30000 nM
- IC50 [2, 4]: 316 nM
- IC50 [2, 7]: < 300 nM

Compound: CCOC(=O)CCCCOc1ccc(-c2ccc3nc(-c4ccc(C)c(NC(=O)C(C)(C)C)c4)cn3n2)c(C(F)(F)F)c1 [Example 427, ethyl 5-(4-(2-(4-methyl-3-pivalamidophenyl)imidazo[1,2-b]pyridazin-6-yl)-3-(trifluoromethyl)phenoxy)pentanoate]
- IC50 [1, 3]: 176 nM
- IC50 [2, 4]: 27 nM

Compound: CCOc1ccc2nc(-c3ccc(C(F)(F)F)c(S(=O)(=O)NCc4ccccc4)c3)cn2n1 [Example 215, N-benzyl-5-(6-ethoxyimidazo[1,2-b]pyridazin-2-yl)-2-(trifluoromethyl)benzenesulfonamide]
- IC50 [1, 3]: 3120 nM
- IC50 [2, 4]: > 10000 nM

Compound: Cc1ccc(-c2cn3nc(-c4cccnc4C(F)(F)F)ccc3n2)cc1NC(=O)NC(C)(C)C [Example 646, 1-tert-butyl-3-(2-methyl-5-(6-(2-(trifluoromethyl)pyridin-3-yl)imidazo[1,2-b]pyridazin-2-yl)phenyl)urea]
- IC50 [1, 5]: < 300 nM
- IC50 [1, 3]: 16 nM
- IC50 [2, 6]: 300 to 3000 nM
- IC50 [2, 4]: 38 nM
- IC50 [2, 7]: < 300 nM

Compound: C#Cc1ccc(-c2cn3nc(-c4ccccc4F)ccc3n2)cc1NC(=O)C(C)(C)C [Example 321, N-(2-ethynyl-5-(6-(2-fluorophenyl)imidazo[1,2-b]pyridazin-2-yl)phenyl)pivalamide]
- IC50 [1, 5]: 300 to 3000 nM
- IC50 [2, 6]: 300 to 3000 nM
- IC50 [2, 4]: 323 nM
- IC50 [2, 7]: < 300 nM

Compound: O=C(Nc1cc(-c2cn3nc(-c4cccnc4C(F)(F)F)ccc3n2)ccc1F)C1CCCCC1 [Example 677, N-(2-fluoro-5-(6-(2-(trifluoromethyl)pyridin-3-yl)imidazo[1,2-b]pyridazin-2-yl)phenyl)cyclohexanecarboxamide]
- IC50 [1, 3]: 637 nM
- IC50 [2, 4]: 146 nM

Compound: Cc1c(NC(=O)C(C)(C)C)cccc1-c1cn2nc(-c3ccccc3F)ccc2n1 [Example 219, N-(3-(6-(2-fluorophenyl)imidazo[1,2-b]pyridazin-2-yl)-2-methylphenyl)pivalamide]
- IC50 [1, 5]: 300 to 3000 nM
- IC50 [1, 3]: 952 nM
- IC50 [2, 6]: 3000 to 30000 nM
- IC50 [2, 4]: 1260 nM
- IC50 [2, 7]: 300 to 3000 nM

Compound: CCc1ccc(-c2cn3nc(-c4ccccc4C#N)ccc3n2)cc1NC(=O)C(C)(C)C [Example 296, N-(5-(6-(2-cyanophenyl)imidazo[1,2-b]pyridazin-2-yl)-2-ethylphenyl)pivalamide]
- IC50 [1, 3]: 226 nM
- IC50 [2, 4]: 311 nM

Compound: CCOC(=O)CCCCCOc1ccc(-c2ccc3nc(-c4ccc(C)c(NC(=O)C(C)(C)C)c4)cn3n2)c(C(F)(F)F)c1 [Example 412, ethyl 6-(4-(2-(4-methyl-3-pivalamidophenyl)imidazo[1,2-b]pyridazin-6-yl)-3-(trifluoromethyl)phenoxy)hexanoate]
- IC50 [1, 5]: 300 to 3000 nM
- IC50 [1, 3]: 665 nM
- IC50 [2, 6]: 300 to 3000 nM
- IC50 [2, 4]: 225 nM
- IC50 [2, 7]: < 300 nM

Compound: COc1cccc(-c2ccc3nc(-c4ccc(C(F)(F)F)c(NC(=O)C(C)(C)C)c4)cn3n2)n1 [Example 147, N-(5-(6-(6-methoxypyridin-2-yl)imidazo[1,2-b]pyridazin-2-yl)-2-(trifluoromethyl)phenyl)pivalamide]
- IC50 [1, 3]: > 10000 nM
- IC50 [2, 4]: 1040 nM

Compound: CC(C)(C)C(=O)Nc1cc(-c2cn3nc(-c4cccnc4C(F)(F)F)ccc3n2)ccc1Cl [Example 642, N-(2-chloro-5-(6-(2-(trifluoromethyl)pyridin-3-yl)imidazo[1,2-b]pyridazin-2-yl)phenyl)pivalamide]
- IC50 [1, 5]: < 300 nM
- IC50 [1, 3]: 6 nM
- IC50 [2, 6]: < 300 nM
- IC50 [2, 4]: 13 nM
- IC50 [2, 7]: < 300 nM

Compound: Cc1ccc(-c2cn3nc(-c4cccc(N(C)C)c4)ccc3n2)cc1NC(=O)C(C)(C)C [Example 290, N-(5-(6-(3-(dimethylamino)phenyl)imidazo[1,2-b]pyridazin-2-yl)-2-methylphenyl)pivalamide]
- IC50 [1, 3]: 296 nM
- IC50 [2, 4]: 321 nM

Compound: Cc1ccc(-c2cn3nc(-c4cccnc4C(F)(F)F)ccc3n2)cc1NC(=O)C1CCCN1C (stereo not shown) [Example 647, 1-methyl-N-(2-methyl-5-(6-(2-(trifluoromethyl)pyridin-3-yl)imidazo[1,2-b]pyridazin-2-yl)phenyl)pyrrolidine-2-carboxamide]
- IC50 [1, 3]: 94 nM
- IC50 [2, 4]: 186 nM

Compound: CCOC(=O)Nc1cc(-c2cn3nc(-c4cccnc4C(F)(F)F)ccc3n2)c(F)cc1Cl [Example 657, ethyl 2-chloro-4-fluoro-5-(6-(2-(trifluoromethyl)pyridin-3-yl)imidazo[1,2-b]pyridazin-2-yl)phenylcarbamate]
- IC50 [1, 3]: 251 nM
- IC50 [2, 4]: 96 nM

Compound: Cc1ccc(-c2cn3nc(-c4ccccc4OC(F)(F)F)ccc3n2)cc1NC(=O)C(C)(C)C [Example 263, N-(2-methyl-5-(6-(2-(trifluoromethoxy)phenyl)imidazo[1,2-b]pyridazin-2-yl)phenyl)pivalamide]
- IC50 [1, 3]: 102 nM
- IC50 [2, 4]: 228 nM

Compound: Cc1ccc(-c2cn3nc(-c4cnccc4C(F)(F)F)ccc3n2)cc1NC(=O)C(C)(C)C [Example 364, N-(2-methyl-5-(6-(4-(trifluoromethyl)pyridin-3-yl)imidazo[1,2-b]pyridazin-2-yl)phenyl)pivalamide]
- IC50 [1, 3]: 1 nM
- IC50 [2, 4]: 3 nM

Compound: CN1CCC(Oc2ccc3nc(-c4ccc(C(F)(F)F)c(NC(=O)C(C)(C)C)c4)cn3n2)CC1 [Example 305, N-(5-(6-(1-methylpiperidin-4-yloxy)imidazo[1,2-b]pyridazin-2-yl)-2-(trifluoromethyl)phenyl)pivalamide]
- IC50 [1, 3]: 3500 nM
- IC50 [2, 4]: 1890 nM

Compound: Cc1ccc(-c2cn3ncccc3n2)cc1NC(=O)C(C)(C)C [Example 105, N-(5-(imidazo[1,2-b]pyridazin-2-yl)-2-methylphenyl)pivalamide]
- IC50 [1, 5]: 300 to 3000 nM
- IC50 [1, 3]: 1810 nM
- IC50 [2, 6]: 3000 to 30000 nM
- IC50 [2, 4]: 1110 nM
- IC50 [2, 7]: 300 to 3000 nM
